Results: ChEMBL document CHEMBL1201862, “PubChem BioAssay data set” (2004)
Calls of active or inactive are those of the source.

Assays:
[1] = tested on: Streptococcus sp. 'group A'; assay: Streptococcus pyogenes SK(-)GAS viability under kanamycin – luminescence, BacTiterGlo, confirmation, counter-screen for streptokinase expression inhibitor project, dose response (AID 1900); assay type: functional, organism-based
[2] = THP-1 cell cytotoxicity, dose response, cytotoxicity control for non-replicating M. tuberculosis project (AID 489025); assay type: functional
cells = assay type: functional
Streptococcus = assay: GAS UMAA2166 growth inhibition – luminescence, BacTiterGlo, counter-screen for streptokinase expression inhibitor project, dose response (AID 1915); assay type: functional, organism-based;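 further: potency for reduction of bacterial viability or growth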
[3] = target: T1, Short transient receptor potential channel 4 (Mus musculus, UniProt Q9QUQ5); assay: block of DAMGO-driven TRPC4 calcium entry – cell-based, HEK293 TRPC4/mu-opioid, Fluo-4 calcium, dose response (AID 434942); assay type: functional;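 further: potency of inhibitors blocking the TRPC4 calcium response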
T1 sequence (Q9QUQ5 whole entry): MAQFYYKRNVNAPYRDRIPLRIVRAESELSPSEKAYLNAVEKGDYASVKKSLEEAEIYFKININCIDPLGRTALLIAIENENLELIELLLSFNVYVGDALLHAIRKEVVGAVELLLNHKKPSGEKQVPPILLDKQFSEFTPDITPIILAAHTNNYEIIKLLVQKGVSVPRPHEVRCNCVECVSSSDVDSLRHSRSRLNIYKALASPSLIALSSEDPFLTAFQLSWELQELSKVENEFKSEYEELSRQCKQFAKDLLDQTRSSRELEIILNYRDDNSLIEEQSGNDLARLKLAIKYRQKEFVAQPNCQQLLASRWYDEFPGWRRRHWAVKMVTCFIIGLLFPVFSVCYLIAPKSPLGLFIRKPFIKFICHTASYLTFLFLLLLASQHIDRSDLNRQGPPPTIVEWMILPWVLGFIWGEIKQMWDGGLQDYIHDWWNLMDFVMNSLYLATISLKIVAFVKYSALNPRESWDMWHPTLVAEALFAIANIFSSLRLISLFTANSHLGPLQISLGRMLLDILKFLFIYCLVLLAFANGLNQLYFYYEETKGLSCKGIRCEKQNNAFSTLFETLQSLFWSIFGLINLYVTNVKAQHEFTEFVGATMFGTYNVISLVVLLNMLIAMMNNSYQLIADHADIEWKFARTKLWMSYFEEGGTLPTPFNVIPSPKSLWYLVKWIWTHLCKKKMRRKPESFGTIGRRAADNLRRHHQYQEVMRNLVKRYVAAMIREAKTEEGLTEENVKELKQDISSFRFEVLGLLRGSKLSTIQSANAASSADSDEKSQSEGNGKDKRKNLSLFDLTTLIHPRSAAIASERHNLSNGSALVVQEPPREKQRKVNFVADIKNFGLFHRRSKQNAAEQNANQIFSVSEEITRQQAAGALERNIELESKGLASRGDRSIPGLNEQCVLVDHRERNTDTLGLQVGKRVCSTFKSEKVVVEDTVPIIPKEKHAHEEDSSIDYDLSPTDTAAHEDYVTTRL

[4] = Vero E6 cell cytotoxicity, dose response, cytotoxicity control for non-replicating M. tuberculosis project, secondary assay (AID 492998); assay type: functional, VeroE6; conditions: Vero C1008
Streptokinase A = target: T2, Streptokinase A (Streptococcus pyogenes serotype M1, UniProt P10520); assay: viability-normalized secreted streptokinase activity reduction – plasminogen activation absorbance, OD405, dose response (AID 1914); assay type: functional, Streptococcus pyogenes M1 GAS;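 further: secreted streptokinase activity via plasminogen activation per viability signal from cell pellet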
T2 sequence (P10520 whole entry): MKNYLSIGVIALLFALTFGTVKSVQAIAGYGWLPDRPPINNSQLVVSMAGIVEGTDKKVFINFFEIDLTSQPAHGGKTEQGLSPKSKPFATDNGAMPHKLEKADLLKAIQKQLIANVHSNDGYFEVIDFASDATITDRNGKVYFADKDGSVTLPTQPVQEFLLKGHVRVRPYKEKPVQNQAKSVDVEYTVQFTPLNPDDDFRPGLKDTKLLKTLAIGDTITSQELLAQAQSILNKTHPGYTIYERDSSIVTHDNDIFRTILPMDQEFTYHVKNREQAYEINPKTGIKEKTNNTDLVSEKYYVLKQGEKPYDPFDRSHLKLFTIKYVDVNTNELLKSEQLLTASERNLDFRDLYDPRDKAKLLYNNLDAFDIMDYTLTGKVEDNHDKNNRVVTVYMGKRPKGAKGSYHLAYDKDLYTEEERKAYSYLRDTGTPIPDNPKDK

[5] = Trypanosoma cruzi growth suppression in host cells – NIH3T3 host cells, beta-gal luminescence, confirmation (AID 2044); assay type: functional, cell-based;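 further: intracellular parasites grown in NIH/3T3 mouse fibroblasts as host cells; luminescent beta-galactosidase reporter signal from transgenic T. cruzi replicating inside host cells; inhibitors lower the luminescence signal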
[6] = target: T3, Type-1 angiotensin II receptor (Homo sapiens, UniProt P30556); assay: antagonism of angiotensin II type 1 receptor – cell-based, uHTS hits, selectivity assay for APJ receptor antagonist project, dose response (AID 463214); assay type: functional;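 further: antagonist potency against angiotensin II stimulated AT1 response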
T3 sequence (P30556 whole entry): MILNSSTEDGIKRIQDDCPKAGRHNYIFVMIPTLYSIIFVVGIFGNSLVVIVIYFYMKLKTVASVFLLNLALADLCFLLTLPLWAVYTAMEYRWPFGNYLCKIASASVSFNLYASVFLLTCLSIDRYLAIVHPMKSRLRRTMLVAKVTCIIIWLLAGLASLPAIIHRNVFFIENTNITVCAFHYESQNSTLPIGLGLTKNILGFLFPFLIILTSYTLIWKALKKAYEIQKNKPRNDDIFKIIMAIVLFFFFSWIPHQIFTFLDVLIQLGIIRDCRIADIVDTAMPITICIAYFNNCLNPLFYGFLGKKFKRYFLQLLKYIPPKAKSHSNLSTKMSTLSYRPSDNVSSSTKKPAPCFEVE

[7] = NIH3T3 cell viability loss – ATP luminescence, mouse fibroblasts, counter-screen, dose response (AID 2010); assay type: functional, cell-based;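 further: cells exposed to compound for about 90 hours before reading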
Beta-galactosidase = Beta-galactosidase (Escherichia coli, UniProt Q8VNN2); assay: PubChem AID 485352; assay type: functional
[8] = target: DNA dC->dU-editing enzyme APOBEC-3G (Homo sapiens, UniProt Q9HC16); assay: Dose Response confirmation of small molecule APOBEC3G DNA Deaminase Inhibitors via a fluorescence-based single-stranded DNA deaminase assay. [Related pubchem assays (depositor defined):AID493012, AID493028]; assay type: functional
INS1 = assay: INS-1E survival protection against cytokine death – cell-based, luminescence, retest, dose response (AID 449756); assay type: functional; conditions: Rattus norvegicus;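 further: cell death triggered by IL-1 beta plus TNF-alpha plus IFN-gamma mixture; protective hits raise ATP signal compared with cytokine alone wells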
[9] = target: T1, Short transient receptor potential channel 4; assay: calcium entry via TRPC4 opening agents – cell-based, HEK293 TRPC4/mu-opioid, Fluo-4 calcium, dose response (AID 434937); assay type: functional
[10] = target: T4, High affinity choline transporter 1 (Homo sapiens, UniProt Q9GZV3); assay: human choline transporter blockers, potency – cell-based, 5-point CRC, membrane potential dye, dose response (AID 504840); assay type: functional
T4 sequence (Q9GZV3 whole entry): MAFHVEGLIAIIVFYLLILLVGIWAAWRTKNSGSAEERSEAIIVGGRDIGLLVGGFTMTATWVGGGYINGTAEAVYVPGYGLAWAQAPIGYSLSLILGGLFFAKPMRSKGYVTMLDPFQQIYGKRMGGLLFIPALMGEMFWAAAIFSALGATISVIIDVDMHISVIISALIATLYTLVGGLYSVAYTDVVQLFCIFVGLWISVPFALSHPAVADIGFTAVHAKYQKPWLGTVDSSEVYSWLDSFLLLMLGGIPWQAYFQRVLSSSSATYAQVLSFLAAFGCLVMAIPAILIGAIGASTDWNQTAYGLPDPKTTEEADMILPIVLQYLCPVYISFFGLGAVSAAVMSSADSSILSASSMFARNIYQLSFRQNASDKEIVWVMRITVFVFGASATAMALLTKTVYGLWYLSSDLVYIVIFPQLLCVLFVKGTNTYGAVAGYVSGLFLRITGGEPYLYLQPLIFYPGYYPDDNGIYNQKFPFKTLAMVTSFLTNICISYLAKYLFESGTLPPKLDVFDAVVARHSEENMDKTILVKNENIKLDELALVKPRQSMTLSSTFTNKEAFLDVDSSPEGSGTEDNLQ

[11] = viability loss in Vero cells – cytotoxicity control for Vif-APOBEC3G degradation inhibitor project, dose response (AID 1117358); assay type: functional; conditions: Vero
CAAX prenyl protease 2 [12] = target: T5, CAAX prenyl protease 2 (Homo sapiens, UniProt Q9Y256); assay: inhibition of Ras-converting CAAX protease Rce1 – biochemical, yeast membranes, quenched-peptide fluorescence, cherry-pick, dose response (AID 588849)
T5 sequence (Q9Y256 whole entry): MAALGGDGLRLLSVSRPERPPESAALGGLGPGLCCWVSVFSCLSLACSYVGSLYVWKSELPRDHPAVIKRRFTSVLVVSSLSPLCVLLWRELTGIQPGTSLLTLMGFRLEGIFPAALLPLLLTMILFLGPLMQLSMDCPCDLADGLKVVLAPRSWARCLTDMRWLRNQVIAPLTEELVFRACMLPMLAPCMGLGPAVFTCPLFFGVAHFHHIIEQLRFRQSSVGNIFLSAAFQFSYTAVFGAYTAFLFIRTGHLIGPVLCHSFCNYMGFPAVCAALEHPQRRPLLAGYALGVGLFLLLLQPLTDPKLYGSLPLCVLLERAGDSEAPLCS

CAAX prenyl protease 2 [13] = target: T6, CAAX prenyl protease 2 (Saccharomyces cerevisiae S288c, UniProt Q03530); assay type: biochemical
T6 sequence (Q03530 whole entry): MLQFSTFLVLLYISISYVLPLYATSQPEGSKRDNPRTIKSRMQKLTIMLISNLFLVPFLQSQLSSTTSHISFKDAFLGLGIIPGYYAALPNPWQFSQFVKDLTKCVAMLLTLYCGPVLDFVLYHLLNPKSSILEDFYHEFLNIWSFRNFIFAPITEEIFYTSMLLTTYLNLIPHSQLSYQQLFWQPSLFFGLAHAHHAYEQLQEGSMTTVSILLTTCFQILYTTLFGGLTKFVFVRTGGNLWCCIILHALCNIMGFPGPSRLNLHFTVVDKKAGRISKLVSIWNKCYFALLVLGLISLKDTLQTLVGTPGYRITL

[14] = target: G-protein coupled receptor 55 (Homo sapiens, UniProt Q9Y2T6); assay: selective activators of receptor GPR55 – imaging, U2OS cells, beta-arrestin-GFP redistribution, primary screen (AID 1961); assay type: functional
[15] = target: Eukaryotic translation initiation factor 4E (Mus musculus, UniProt P63073); assay: blockers of eIF4G binding by eIF4E – biochemical, TR-FRET, dose response (AID 855); assay type: functional;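 further: potency for disrupting eIF4E binding to eIF4GI seen as loss of FRET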
[16] = viability of uninfected HEp-2 cells – cell-based, HTS, cytotoxicity control for RSV inhibitor project, dose response (AID 2410); assay type: functional; conditions: human respiratory syncytial virus
[17] = target: T7, Heat shock factor protein 1 (Mus musculus, UniProt P38532); assay: enhancement of HSF1-driven luciferase signal – cell-based, NIH3T3, luminescence, dose retest, confirmation (AID 435004); assay type: functional;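 further: stress induced by proteasome inhibitor MG132 added 30 min after compound; luciferase reporter driven by HSF1 response element in NIH3T3 cells; actives raise luminescence as potentiators of the MG132 stress response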
T7 sequence (P38532 whole entry): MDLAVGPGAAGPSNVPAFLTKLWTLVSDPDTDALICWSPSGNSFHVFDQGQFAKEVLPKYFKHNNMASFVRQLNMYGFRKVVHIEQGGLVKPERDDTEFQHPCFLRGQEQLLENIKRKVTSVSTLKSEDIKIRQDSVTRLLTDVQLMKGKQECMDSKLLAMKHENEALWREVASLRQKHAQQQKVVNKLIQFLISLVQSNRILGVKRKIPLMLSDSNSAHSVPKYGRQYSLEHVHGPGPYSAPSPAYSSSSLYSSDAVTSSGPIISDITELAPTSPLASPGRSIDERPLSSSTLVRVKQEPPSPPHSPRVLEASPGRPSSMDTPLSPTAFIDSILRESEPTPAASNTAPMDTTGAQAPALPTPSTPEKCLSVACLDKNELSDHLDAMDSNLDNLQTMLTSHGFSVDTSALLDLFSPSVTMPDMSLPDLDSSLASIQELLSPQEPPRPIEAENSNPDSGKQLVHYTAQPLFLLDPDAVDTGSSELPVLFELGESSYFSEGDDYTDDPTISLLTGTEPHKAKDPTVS

Chain of Beta-galactosidase (Q8VNN2 whole entry): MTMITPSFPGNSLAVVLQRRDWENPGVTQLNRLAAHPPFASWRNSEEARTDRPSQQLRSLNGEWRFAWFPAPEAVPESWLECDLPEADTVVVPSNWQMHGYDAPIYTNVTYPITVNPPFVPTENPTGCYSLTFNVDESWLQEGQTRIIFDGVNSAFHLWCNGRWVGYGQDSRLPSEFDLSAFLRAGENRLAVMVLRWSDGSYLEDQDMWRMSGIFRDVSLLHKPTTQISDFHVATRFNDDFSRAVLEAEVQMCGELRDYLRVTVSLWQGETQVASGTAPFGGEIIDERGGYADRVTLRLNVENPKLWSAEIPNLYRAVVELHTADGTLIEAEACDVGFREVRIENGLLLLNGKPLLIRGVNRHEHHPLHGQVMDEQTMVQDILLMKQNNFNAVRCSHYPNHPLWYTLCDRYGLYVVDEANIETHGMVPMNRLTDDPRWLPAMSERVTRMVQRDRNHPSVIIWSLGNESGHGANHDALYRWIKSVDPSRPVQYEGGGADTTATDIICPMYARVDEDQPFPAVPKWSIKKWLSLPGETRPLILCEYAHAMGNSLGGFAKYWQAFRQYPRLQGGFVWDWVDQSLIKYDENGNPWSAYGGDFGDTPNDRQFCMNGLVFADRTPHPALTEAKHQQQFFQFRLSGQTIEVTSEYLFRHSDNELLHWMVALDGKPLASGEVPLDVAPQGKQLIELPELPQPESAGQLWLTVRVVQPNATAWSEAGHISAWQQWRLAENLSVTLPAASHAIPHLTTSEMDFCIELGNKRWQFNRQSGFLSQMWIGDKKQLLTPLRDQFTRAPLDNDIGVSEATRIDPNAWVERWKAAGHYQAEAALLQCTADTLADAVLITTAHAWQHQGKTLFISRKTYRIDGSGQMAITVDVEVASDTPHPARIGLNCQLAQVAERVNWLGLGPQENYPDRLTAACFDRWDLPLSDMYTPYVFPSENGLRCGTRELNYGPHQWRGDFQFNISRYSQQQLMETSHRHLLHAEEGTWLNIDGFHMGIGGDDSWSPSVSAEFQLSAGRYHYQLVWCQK
Chain of G-protein coupled receptor 55 (Q9Y2T6 whole entry): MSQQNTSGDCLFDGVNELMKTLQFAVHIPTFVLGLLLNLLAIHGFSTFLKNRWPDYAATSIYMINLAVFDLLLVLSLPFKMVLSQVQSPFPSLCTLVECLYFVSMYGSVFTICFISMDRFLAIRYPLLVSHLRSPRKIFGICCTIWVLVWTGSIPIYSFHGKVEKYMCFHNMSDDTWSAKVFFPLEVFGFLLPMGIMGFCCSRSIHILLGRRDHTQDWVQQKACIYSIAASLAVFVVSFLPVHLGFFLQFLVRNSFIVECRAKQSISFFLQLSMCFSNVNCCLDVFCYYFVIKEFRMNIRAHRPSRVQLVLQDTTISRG
Chain of DNA dC->dU-editing enzyme APOBEC-3G (Q9HC16 whole entry): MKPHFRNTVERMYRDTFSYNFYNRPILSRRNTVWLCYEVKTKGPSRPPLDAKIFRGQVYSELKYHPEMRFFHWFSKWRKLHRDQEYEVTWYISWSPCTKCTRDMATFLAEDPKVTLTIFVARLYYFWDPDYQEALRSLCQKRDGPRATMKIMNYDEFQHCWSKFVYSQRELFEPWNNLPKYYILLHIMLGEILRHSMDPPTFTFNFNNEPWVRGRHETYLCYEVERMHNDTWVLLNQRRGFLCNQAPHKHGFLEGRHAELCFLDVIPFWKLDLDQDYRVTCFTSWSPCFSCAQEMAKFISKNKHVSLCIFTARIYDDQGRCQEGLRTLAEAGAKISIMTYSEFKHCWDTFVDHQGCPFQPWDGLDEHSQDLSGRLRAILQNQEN
Chain of Eukaryotic translation initiation factor 4E (P63073 whole entry): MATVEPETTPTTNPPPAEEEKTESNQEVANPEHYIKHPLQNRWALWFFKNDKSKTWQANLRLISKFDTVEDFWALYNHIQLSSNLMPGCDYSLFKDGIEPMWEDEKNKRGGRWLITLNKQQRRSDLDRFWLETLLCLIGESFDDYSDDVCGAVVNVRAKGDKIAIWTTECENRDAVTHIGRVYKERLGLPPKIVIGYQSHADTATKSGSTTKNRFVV

Cc1ccc(C(=O)Nc2nnc(C3=COCCO3)o2)cc1C
EC50 [1]: 5.17 µM (active)
CC50 [2]: > 40 µM (active)
IC50 (cells): 2.03 µM (active)
EC50 (Streptococcus): 15.5 µM (active)
EC50 [3]: 0.421 µM (active)
CC50 [4]: > 20 µM (active)
EC50 (Streptokinase A): > 150 µM (not active)

O=C(Nc1nc(-c2ccccn2)cs1)Nc1ccc(F)cc1F
EC50 [1]: 1.16 µM (active)
EC50 [5]: 0.9 µM (active)
EC50 (Streptococcus): 2.33 µM (active)
IC50 [6]: 18.8 µM (active)
EC50 [7]: 8.78 µM (active)
EC50 (Beta-galactosidase): > 40 µM (inactive)
IC50 [8]: 65.9 µM (active)
AC50 (INS1): 3.4 µM (active)

CCN1CCN(c2ccc(S(=O)(=O)N3CCOCC3)cc2NC(=O)c2ccccc2SC)CC1
EC50 [9]: 0.421 µM (active)

COc1cc2ccccc2cc1C(=O)NCC(c1cccs1)N(C)C (stereo not drawn)
EC50 [9]: 0.944 µM (active)

Cc1cccc2c1NC(=O)C2=Nc1ccc(Cl)cc1
IC50 [6]: 27.9 µM (not active)
EC50 (Beta-galactosidase): > 40 µM (inactive)

CN1CCN(S(=O)(=O)c2ccc(NC(=O)Nc3cccc(Cl)c3)cc2)CC1
IC50 [10]: 13.2 µM (active)
CC50 [11]: > 40 µM (active)

CNS(=O)(=O)c1cccc(C(=O)OCC(=O)c2ccc(S(=O)(=O)N3CCCCC3)cc2)c1
IC50 [6]: 18.8 µM (active)
EC50 (Beta-galactosidase): > 40 µM (inactive)

CCc1ccc(Nc2n[n+](-c3ccccc3)c(/C=C/c3ccccc3)s2)cc1
AC50 (CAAX prenyl protease 2 [12]): 23.8 µM (active)
AC50 (CAAX prenyl protease 2 [13]): 0.634 µM (active)
EC50 [14]: 1.59 µM (active)

NC(=O)C1CCCN(CCc2ccccc2)C1 (stereo not drawn)
EC50 [9]: 0.06 µM (active)

CC(/C=N\NC(=O)CN1CCN(S(=O)(=O)c2ccc(C)cc2)CC1)=C\c1ccccc1
AC50 (CAAX prenyl protease 2 [12]): 59.3 µM (active)
AC50 (CAAX prenyl protease 2 [13]): 4.3 µM (active)
IC50 [15]: > 64 µM (inactive)

CCOC(=O)C(=Cc1c[nH]c2ccc(S(=O)(=O)N(C)C)cc12)C(=O)OCC
IC50 [10]: 15.8 µM (active)
CC50 [16]: 13.4 µM (active)
EC50 [17]: 45.3 µM (active)
